The text below walks through data of BindingDB's records for doi:10.3109/14756360903468155 (Banaras Hindu University, 2010).

Each structure is given as a SMILES string.

Chain of Urease (Q949H4 whole entry): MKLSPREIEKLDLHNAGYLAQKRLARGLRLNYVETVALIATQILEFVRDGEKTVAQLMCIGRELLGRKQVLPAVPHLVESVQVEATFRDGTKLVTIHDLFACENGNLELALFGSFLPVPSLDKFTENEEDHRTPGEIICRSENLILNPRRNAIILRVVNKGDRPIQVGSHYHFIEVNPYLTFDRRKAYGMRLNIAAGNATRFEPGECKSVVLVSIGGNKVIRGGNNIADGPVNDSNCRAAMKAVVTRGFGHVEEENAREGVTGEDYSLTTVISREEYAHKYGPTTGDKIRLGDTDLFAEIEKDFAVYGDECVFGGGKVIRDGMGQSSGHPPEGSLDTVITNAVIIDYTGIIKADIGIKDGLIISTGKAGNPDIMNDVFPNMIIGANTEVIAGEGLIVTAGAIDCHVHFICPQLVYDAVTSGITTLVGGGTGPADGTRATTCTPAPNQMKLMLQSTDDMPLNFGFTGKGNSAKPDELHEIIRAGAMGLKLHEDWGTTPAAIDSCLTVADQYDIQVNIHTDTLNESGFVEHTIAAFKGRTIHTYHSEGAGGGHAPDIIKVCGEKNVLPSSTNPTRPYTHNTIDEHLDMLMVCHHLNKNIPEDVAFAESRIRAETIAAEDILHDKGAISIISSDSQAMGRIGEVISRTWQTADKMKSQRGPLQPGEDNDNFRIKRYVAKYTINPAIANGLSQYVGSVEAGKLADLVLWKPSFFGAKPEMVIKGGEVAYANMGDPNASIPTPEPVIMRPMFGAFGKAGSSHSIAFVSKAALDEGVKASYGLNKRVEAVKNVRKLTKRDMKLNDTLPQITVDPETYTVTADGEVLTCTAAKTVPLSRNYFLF

The assay has as its target Urease (Glycine max, UniProt Q949H4). Briefly: Urease Inhibition Assay. To be noted: pH 7; 37 °C. The procedure: The inhibition studies of soybean urease were initiated with boric acid and boronic acids (butylboronic acid, 4-bromophenylboronic acid, and phenylboronic acid). Also, heavy metal ions (HgCl2, AgCl, and Cu(CH3COO)2) and sodium salts of mineral acids (NaF, NaCl, NaNO3, and Na2SO4) were investigated for their inhibitory effects. Stock solutions of inhibitors, except for 4-bromophenylboronicacid, were prepared in 0.05 M Tris-acetate buffer, pH 7.0, and were suitably diluted for experiments, whereas a stock solution of 4-bromophenylboronic acid was prepared in absolute ethanol and subsequently diluted in respective buffer. The activity assay was carried out at standard conditions as described earlier in the presence of varying concentrations of inhibitors. The yellow-orange colored solution was measured at 405 nm on a Unicam UV-2 spectrophotometer. The amount of NH3 liberated in the reaction mixture was estimated by calibrating Nessler's reagent with standard NH4Cl solution. One enzyme unit is defined as the amount of urease required to liberate 1 μmol of ammonia per minute under our test conditions (0.1 M urea, 0.05 M Trisacetatebuffer, pH 7.0, 37°C).
In the case of `OB(O)O` [Boric acid], the Ki (usually a dissociation constant, usually derived from enzyme kinetics or from competition with a known ligand) stood at 200 µM.
As for `OB(O)c1ccc(Br)cc1` [4-bromo phenyl boronic acid], the figure is 220 µM; as for `OB(O)c1ccccc1` [Phenylboronic acid, 22], 2000 µM; as for `CCCCB(O)O` [Borinic acid derivative], 1500 µM.
